One data set concerns Human orthopneumovirus. In words: Antiviral activity against RSV type B assessed as viral growth inhibition. The data set is classed as functional, organism-based. The settings on record: human respiratory syncytial virus.
A short description of data set [1]: Apparent permeability of compound in phosphate buffer by PAMPA assay. The data set is classed as ADME.
A short description of data set [2]: Oral bioavailability in rat at 2 mg/kg. The settings on record: in vivo. Type of data set: ADME, organism-based.
Data set [3] can be described thus: Oral bioavailability in monkey at 5 mg/kg. The data set is classed as ADME, organism-based, Macaca mulatta. The settings on record: rhesus monkey, in vivo.
Data set [4] deals with T1, Developmentally-regulated GTP-binding protein 1 (Homo sapiens, UniProt Q9Y295).
T1 sequence (Q9Y295 whole entry): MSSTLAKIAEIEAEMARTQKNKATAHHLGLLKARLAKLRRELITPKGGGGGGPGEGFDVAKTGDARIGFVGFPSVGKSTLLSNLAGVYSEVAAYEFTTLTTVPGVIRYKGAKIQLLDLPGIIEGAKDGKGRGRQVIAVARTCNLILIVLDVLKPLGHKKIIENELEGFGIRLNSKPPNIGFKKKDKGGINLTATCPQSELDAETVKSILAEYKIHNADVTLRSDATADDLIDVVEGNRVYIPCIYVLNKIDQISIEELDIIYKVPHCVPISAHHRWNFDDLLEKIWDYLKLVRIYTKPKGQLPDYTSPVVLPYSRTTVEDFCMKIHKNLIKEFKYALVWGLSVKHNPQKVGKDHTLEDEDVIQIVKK
In words: Inhibition of DRG1 (unknown origin).

Data set [5] can be described thus: Solubility of compound in PBS at pH 7.4. Type of data set: physicochemical.
Data set [6] can be described thus: Half life in iv dosed rat. The data set is classed as ADME, organism-based. The settings on record: in vivo.
A short description of data set [7]: AUC in iv dosed rat. The data set is classed as ADME, organism-based. The settings on record: in vivo.
A short description of data set [8]: Oral bioavailability in rat. The data set is classed as ADME, organism-based. The settings on record: in vivo.
Data set [9] in a line: Intrinsic clearance in human liver microsomes. The data set is classed as ADME, Microsome. The settings on record: read-out: CLH.
Data set [10] in a line: Intrinsic clearance in rat liver microsomes. Type of data set: ADME, Microsome.
Data set [11] addresses Hepatitis C virus NS5B RNA-dependent RNA polymerase (Hepatitis C virus, UniProt Q8JXU8). In words: Inhibition of Hepatitis C virus NS5B polymerase. Also noted: species or system Hepacivirus hominis.
The target of the next data set is Collagenase 3 (Homo sapiens, UniProt P45452). In words: Binding affinity to full length human recombinant MMP-13 using Mca-PLGL-Dpa-AR-NH2 as fluorogenic peptide substrate assessed as inhibition constant.
Data set [12] is described as follows: Kinetic solubility of compound in PBS buffer at 500 uM incubated for 18 hrs by HPLC analysis. The data set is classed as physicochemical. The settings on record: read-out: Kinetic_solubility.
Data set [13] can be described thus: Metabolic stability in human liver microsomes assessed as half life at 1 uM incubated for 60 mins by LC-MS/MS analysis. Type of data set: ADME, Microsome.
Data set [14] can be described thus: Metabolic stability in rat liver microsomes assessed as half life at 1 uM incubated for 60 mins by LC-MS/MS analysis. The data set is classed as ADME, Microsome.
The nature of data set [15]: Metabolic stability in mouse liver microsomes assessed as half life at 1 uM incubated for 60 mins by LC-MS/MS analysis. Type of data set: ADME, Microsome.
Another data set concerns Z-138. The data set can be described thus: Growth inhibition of human Z138 cells. The data set is classed as functional.
Data set [16] in a line: Inhibition of GST fused Bcl-xL (unknown origin) incubated for 5 min by TR-FRET assay. Also noted: species or system Homo sapiens.
Data set [17] deals with Apoptosis regulator Bcl-2 (Homo sapiens, UniProt P10415). In words: Inhibition of Bcl-2 (unknown origin) by fluorescence polarization assay.
Sequence of Apoptosis regulator Bcl-2 (P10415 whole entry): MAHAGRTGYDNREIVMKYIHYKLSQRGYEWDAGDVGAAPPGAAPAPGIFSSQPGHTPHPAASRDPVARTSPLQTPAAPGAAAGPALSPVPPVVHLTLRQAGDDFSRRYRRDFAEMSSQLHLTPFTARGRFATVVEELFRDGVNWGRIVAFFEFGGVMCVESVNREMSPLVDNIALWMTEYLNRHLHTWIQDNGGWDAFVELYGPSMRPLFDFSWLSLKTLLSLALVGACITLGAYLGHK
Data set [18] is described as follows: AUC (0 to 24 hrs) in rat at 5 mg/kg, po. Type of data set: ADME, organism-based. The settings on record: in vivo.
A short description of data set [19]: Tmax in rat at 5 mg/kg, po. The data set is classed as ADME, organism-based. The settings on record: in vivo.
Data set [20] is described as follows: Solubility of compound at pH 6.8. The data set is classed as physicochemical. The settings on record: buffer.
Data set [21] in a line: Intrinsic clearance in mouse liver microsomes. Type of data set: ADME, Microsome. The settings on record: read-out: CLH.

Consider 14 compounds from ChEMBL document CHEMBL5634110, “Applications of oxetanes in drug discovery and medicinal chemistry” (Eur J Med Chem, 2023).

Values after ≈ are worked out from the molar mass of the structure shown.

Sequence of Hepatitis C virus NS5B RNA-dependent RNA polymerase (Q8JXU8 whole entry): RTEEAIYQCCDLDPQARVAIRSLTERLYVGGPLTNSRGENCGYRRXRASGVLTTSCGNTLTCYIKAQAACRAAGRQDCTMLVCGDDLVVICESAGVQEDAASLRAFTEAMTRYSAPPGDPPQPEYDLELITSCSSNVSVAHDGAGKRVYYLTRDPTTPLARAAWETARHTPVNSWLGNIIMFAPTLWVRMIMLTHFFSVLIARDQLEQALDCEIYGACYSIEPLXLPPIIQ

Turning to `O=C(NC1CC1)c1cc2c(s1)-c1ccccc1N(C(=O)c1ccc(NC(=O)c3cccnc3N3CCC4(CC3)COC4)cc1)CC2`, the EC50 in the data set with Human orthopneumovirus was over 100000 nM.

Turning to `COC(C)(C)C#Cc1cnc2c(c1)[C@]1(COC(N)=N1)c1cc(-c3cccnc3F)ccc1O2`, in data set [1], the apparent permeability (Papp) is 12 ×10⁻⁶ cm/s.

In the case of `CC(C)(O)C#Cc1cnc2c(c1)[C@]1(COC(N)=N1)c1cc(-c3cccnc3F)ccc1O2`, the Papp in [1] is 11 ×10⁻⁶ cm/s. For the same compound, the results for the bioavailability in data set [2] and in data set [3] were 70% and 101%, respectively.

In turn, `CC(=O)N1CCC(c2cc(Nc3cc(C#N)ccn3)nc(N3CCC(F)(F)C3)c2)CC1` yielded an IC50 in [4] of 180 nM.

With `COC(=O)Nc1nc2cc(C(=O)c3ccc(N(C)C4COC4)cc3)ccc2[nH]1`, in data set [5], the concentration in solution (solubility) was 137 µg/mL (≈ 360 µM). In [6], this compound gave a half-life of 5.5 h. For the same compound, the AUC in [7] turned out to be 469 ng·h/mL. The bioavailability in [8] was 73.1%.

Consider `COc1cc(C(F)(F)F)ccc1COc1cccc(N2C=NN(Cc3nc4c(F)cc(C(=O)O)cc4n3C[C@@H]3CCO3)CC2)n1`, for which the microsomal CLint in data set [9] turned out to be 12 µL/min/mg. In data set [10], this compound had a CLH of 12 µL/min/mg.

Consider `COc1cc(C#N)ccc1COc1cccc(N2C=NN(Cc3nc4c(F)cc(C(=O)O)cc4n3C[C@@H]3CCO3)CC2)n1`, for which the microsomal CLint in [9] was 6 µL/min/mg.

Turning to `Nc1nc2c(ncn2[C@@H]2O[C@H](COP(=O)(O)OP(=O)(O)OP(=O)(O)O)[C@@H](O)[C@@]23CCO3)c(=O)[nH]1`, the IC50 in [11] is 10000 nM.

In the case of `CC(C)[C@H](NC(=O)c1ccc(-c2ccc(CNc3nc4c(c(=O)[nH]3)CCC4)c(F)c2)o1)C(=O)NC1COC1`, the Ki on Collagenase 3 was determined as 10.3 nM. The solubility kinetic at 18 h, 500 µM in [12] was 32.7 µM (≈ 17.1 µg/mL). In addition, the results for the half-life at 1 µM in data set [13], in data set [14] and in data set [15] were 1.1 h, 1.67 h and 1.58 h, respectively. Further, it took 20 nM to inhibit growth with Z-138 by half (GI50).

For `CC(C)[C@H](NC(=O)c1ccc(-c2ccc(CCc3nc4c(c(=O)[nH]3)CCC4)c(F)c2)o1)C(=O)NC1COC1`, the Ki on Collagenase 3 was 12.2 nM. The solubility kinetic at 18 h, 500 µM in [12] stood at 76.4 µM (≈ 39.9 µg/mL). The half-life at 1 µM in data set [13] came to 1.02 h; in [14], 1.03 h; in data set [15], 1.73 h.

Turning to `CC1(C)CCC(c2ccc(Cl)cc2)=C(CN2CCN(c3ccc(C(=O)NS(=O)(=O)c4ccc(OCC5(CN6CC(F)(F)C6)COC5)c(S(=O)(=O)C(F)(F)F)c4)cc3)CC2)C1`, the concentration for half-maximal inhibition (IC50) was 105 nM in data set [16] and 17.3 nM in [17].

In data set [18], `CO[C@H]1C[C@@H](C)C/C(C)=C/[C@@H](C/C=C/C2(O)COC2)C(=O)C[C@H](O)[C@@H](C)[C@@H](/C(C)=C/[C@@H]2CC[C@@H](O)[C@H](OC)C2)OC(=O)[C@@H]2CCCCN2C(=O)C(=O)[C@]2(O)O[C@H]1[C@@H](OC)C[C@H]2C` yielded an AUC(0-t) of 49100 ng·h/mL. Also, the Tmax in data set [19] came out at 1 h.

Consider `CC1(C)CCC(c2ccc(Cl)cc2)=C(CN2CCN(c3ccc(C(=O)NS(=O)(=O)c4ccc(N[C@H](CCN5CCOCC5)CSc5ccccc5)c(S(=O)(=O)C(F)(F)F)c4)cc3)CC2)C1` [NAVITOCLAX], for which the 50% inhibitory concentration (IC50) in data set [16] was determined as 8.2 nM.

Consider `C=CC[C@@H]1/C=C(\C)C[C@H](C)C[C@H](OC)[C@H]2O[C@@](O)(C(=O)C(=O)N3CCCC[C@H]3C(=O)O[C@H](/C(C)=C/[C@@H]3CC[C@@H](O)[C@H](OC)C3)[C@H](C)[C@@H](O)CC1=O)[C@H](C)C[C@@H]2OC` [TACROLIMUS ANHYDROUS], for which, in [20], the solubility was 28 µM (≈ 22.5 µg/mL). Moreover, the microsomal CLint in [21] stood at 306 µL/min/mg. Further, in [18], the AUC(0-t) turned out to be 2490 ng·h/mL. Besides, the Tmax in data set [19] was 1 h.
